From EP0007672A1, “Isocyanoalkenes, process and useful intermediates for their preparation, pharmaceutical and fungicidal preparations containing those isocyanoalkenes and the use of the fungicidal preparations in agriculture” (GIST-BROCADES N.V., priority 1978, dated 1980)
≈ marks a conversion by molar mass, not a printed value. Read-outs that look alike come from different tables or passages of the source.

Tests used:
Experiment in all cases: MIC (Minimum Inhibitory Concentration)
Format in all cases: cell-based
Candida albicans = system: Candida albicans
Fusarium (bulb) = Fusarium (bulb) A 3252
Fusarium (tulip) = Fusarium (tulip) A 3253
Fusarium solani = conditions: Fusarium solani, read-out: MIC values
Pasteurella multocida = conditions: Pasteurella multocida, read-out: MIC values
Rhizoctonia solani = conditions: Rhizoctonia solani, read-out: MIC values
[1] = system: Streptococcus haemolyticus; conditions: Streptococcus, read-out: MIC values
Trichophyton equinum = system: Trichophyton equinum
[2] = system: Trichophyton mentagrophytus
Trichophyton quickeaneum = conditions: Trichophyton, read-out: MIC values
Trichophyton rubrum = system: Trichophyton rubrum
[3] = system: Trichophyton schoenleinii; conditions: Trichophyton schoenleinii, read-out: MIC values
[4] = system: Trichophyton soudanese joyeux; conditions: Trichophyton, read-out: MIC values
Trichophyton tonsurans = conditions: Trichophyton tonsurans, read-out: MIC values
Trichophyton verrucosum = system: Trichophyton verrucosum
Trichophyton violoceum = conditions: Trichophyton, read-out: MIC values

[C-]#[N+]C(=C1CCCC1)S(=O)(=O)c1ccc(C)cc1 [Example 9, a-cyclopentylidene-a-(4-toluenesulphonyl)-methylisocyanide]
MIC (Candida albicans; read-out: MIC values, Candida albicans A 7): 0.8 µg/mL (≈ 3.06 µM) | MIC (Candida albicans; read-out: MIC values, Candida albicans A 3140): 1.5 µg/mL (≈ 5.74 µM) | MIC (Candida albicans; read-out: MIC values, Candida albicans A 3141): 3 µg/mL (≈ 11.5 µM) | MIC (Candida albicans; read-out: MIC values, Candida albicans A 3142): 1.5 µg/mL (≈ 5.74 µM) | MIC (Candida albicans; read-out: MIC values, Candida albicans A 3143): 0.8 µg/mL (≈ 3.06 µM) | MIC (Candida albicans; read-out: MIC values, Candida albicans A 3144): 1.5 µg/mL (≈ 5.74 µM) | MIC (Candida albicans; read-out: MIC values, Candida albicans A 3145): 1.5 µg/mL (≈ 5.74 µM) | MIC (Candida albicans; read-out: MIC values, Candida albicans A 3165): 3 µg/mL (≈ 11.5 µM) | MIC (Candida albicans; read-out: MIC values, Candida albicans A 3166): 6 µg/mL (≈ 23 µM) | MIC (Candida albicans; read-out: MIC values, Candida albicans A 3167): 3 µg/mL (≈ 11.5 µM) | MIC (Candida albicans; read-out: MIC values, Candida albicans A 3168): 6 µg/mL (≈ 23 µM) | MIC (Candida albicans; read-out: MIC values, Candida albicans A 3169): 3 µg/mL (≈ 11.5 µM) | MIC (Candida albicans; read-out: MIC values, Candida albicans A 3171): 3 µg/mL (≈ 11.5 µM) | MIC (Candida albicans; read-out: MIC values, Candida albicans A 3184): 1.5 µg/mL (≈ 5.74 µM) | MIC (Candida albicans; read-out: MIC values, Candida albicans A 3190): 1.5 µg/mL (≈ 5.74 µM) | MIC (Candida albicans; read-out: MIC values, Candida albicans A 3191): 0.8 µg/mL (≈ 3.06 µM) | MIC (Candida albicans; read-out: MIC values, Candida albicans A 3192): 0.8 µg/mL (≈ 3.06 µM) | MIC (Candida albicans; read-out: MIC values, Candida albicans A 3194): 0.8 µg/mL (≈ 3.06 µM) | MIC (Candida albicans; read-out: MIC values, Candida albicans A 3196): 3 µg/mL (≈ 11.5 µM) | MIC (Fusarium (bulb)): 25 µg/mL (≈ 95.7 µM) | MIC (Fusarium (tulip)): 12.5 µg/mL (≈ 47.8 µM) | MIC (Fusarium solani): 12.5 µg/mL (≈ 47.8 µM) | MIC (Pasteurella multocida): 3 µg/mL (≈ 11.5 µM) | MIC (Rhizoctonia solani): 1.5 µg/mL (≈ 5.74 µM) | MIC [1]: 25 µg/mL (≈ 95.7 µM) | MIC (Trichophyton equinum; read-out: MIC values, Trichophyton equinum 182-76): 3 µg/mL (≈ 11.5 µM) | MIC (Trichophyton equinum; read-out: MIC values, Trichophyton equinum 441-51): 0.1 µg/mL (≈ 0.383 µM) | MIC (Trichophyton equinum; read-out: MIC values, Trichophyton equinum 856-71): < 0.05 µg/mL | MIC ([2]; read-out: MIC values, Trichophyton mentagrophytus 367-68): 3 µg/mL (≈ 11.5 µM) | MIC ([2]; read-out: MIC values, Trichophyton mentagrophytus 421-67): 6 µg/mL (≈ 23 µM) | MIC ([2]; read-out: MIC values, Trichophyton mentagrophytus A 3252): 1.5 µg/mL (≈ 5.74 µM) | MIC ([2]; read-out: MIC values, Trichophyton mentagrophytus R 177): 3 µg/mL (≈ 11.5 µM) | MIC ([2]; read-out: MIC values, Trichophyton mentagrophytus R 178): 12.5 µg/mL (≈ 47.8 µM) | MIC ([2]; read-out: MIC values, Trichophyton mentagrophytus RRL 305): 0.8 µg/mL (≈ 3.06 µM) | MIC (Trichophyton quickeaneum): 1.5 µg/mL (≈ 5.74 µM) | MIC (Trichophyton rubrum; read-out: MIC values, Trichophyton rubrum 218-65): 0.8 µg/mL (≈ 3.06 µM) | MIC (Trichophyton rubrum; read-out: MIC values, Trichophyton rubrum 494-62): 1.5 µg/mL (≈ 5.74 µM) | MIC (Trichophyton rubrum; read-out: MIC values, Trichophyton rubrum A 810): 0.1 µg/mL (≈ 0.383 µM) | MIC [3]: 0.4 µg/mL (≈ 1.53 µM) | MIC [4]: 6 µg/mL (≈ 23 µM) | MIC (Trichophyton tonsurans): 6 µg/mL (≈ 23 µM) | MIC (Trichophyton verrucosum; read-out: MIC values, Trichophyton verrucosum 134-66): < 0.05 µg/mL | MIC (Trichophyton verrucosum; read-out: MIC values, Trichophyton verrucosum A 2922): 0.4 µg/mL (≈ 1.53 µM) | MIC (Trichophyton violoceum): 0.4 µg/mL (≈ 1.53 µM)
